Experimental data published in ChEMBL document CHEMBL3885881, “DrugMatrix”.

Species: Rattus norvegicus
Assay: DrugMatrix - Regimen: Daily Repeat
Type: toxicity, organism-based, Sprague-Dawley
Set-up: regimen Daily Repeat, gender Male, age 6-8 weeks
Settings: in vivo, po, route oral GAVAGE, vehicle .5 % CMC; for ABSOLUTE BASOPHIL / ABSOLUTE EOSINOPHIL / ABSOLUTE LYMPHOCYTE / ABSOLUTE MONOCYTE / ABSOLUTE SEGMENTED NEUTROPHIL / BASOPHIL / EOSINOPHIL / ERYTHROCYTE COUNT / HEMATOCRIT / HEMOGLOBIN / LEUKOCYTE COUNT / LYMPHOCYTE / MEAN CORPUSCULAR HEMOGLOBIN / MEAN CORPUSCULAR HEMOGLOBIN CONCENTRATION / MEAN CORPUSCULAR VOLUME / MONOCYTE / NEUTROPHIL / NUCLEATED RED BLOOD CELLS / PLATELET COUNT: tissue Blood; for ALANINE AMINOTRANSFERASE / ALBUMIN / ALKALINE PHOSPHATASE / ASPARTATE AMINOTRANSFERASE / BLOOD UREA NITROGEN / CARBON DIOXIDE / CHLORIDE / CHOLESTEROL / CREATINE PHOSPHOKINASE / CREATININE / GLUCOSE / LACTATE DEHYDROGENASE / LIPASE / PHOSPHORUS / POTASSIUM / SODIUM / TOTAL BILIRUBIN / TOTAL PROTEIN / URIC ACID: tissue Plasma
[1] = 25 mg/kg, 120 h, dose level Low, time 5 day
[2] = 1400 mg/kg, 72 h, dose level High, time 3 day
[3] = 1400 mg/kg, 120 h, dose level High, time 5 day

SMILES: C[C@](O)(CS(=O)(=O)c1ccc(F)cc1)C(=O)Nc1ccc(C#N)c(C(F)(F)F)c1 [(R)-BICALUTAMIDE]
- ABSOLUTE BASOPHIL [1]: 0 CELLS/uL
- ABSOLUTE EOSINOPHIL [1]: 40.67 CELLS/uL
- ABSOLUTE LYMPHOCYTE [1]: 7260.33 CELLS/uL
- ABSOLUTE MONOCYTE [1]: 84 CELLS/uL
- ABSOLUTE SEGMENTED NEUTROPHIL [1]: 381.67 CELLS/uL
- BASOPHIL [1]: 0%
- EOSINOPHIL [1]: 0.67%
- ERYTHROCYTE COUNT [1]: 5.41 x10E6/uL
- HEMATOCRIT [1]: 34.23%
- HEMOGLOBIN [1]: 13.2 G/DL
- LEUKOCYTE COUNT [1]: 7.77 x10E3/uL
- LYMPHOCYTE [1]: 92.33%
- MEAN CORPUSCULAR HEMOGLOBIN [1]: 24.4 pg
- MEAN CORPUSCULAR HEMOGLOBIN CONCENTRATION [1]: 38.6 G/DL
- MEAN CORPUSCULAR VOLUME [1]: 63.13 fL
- MONOCYTE [1]: 1.33%
- NEUTROPHIL [1]: 5.67%
- NUCLEATED RED BLOOD CELLS [1]: 0 /100WBC
- PLATELET COUNT [1]: 1128.67 x10E3/uL
- ALANINE AMINOTRANSFERASE [1]: 51.67 u/L
- ALBUMIN [1]: 4.37 G/DL
- ALKALINE PHOSPHATASE [1]: 358.33 u/L
- ASPARTATE AMINOTRANSFERASE [1]: 82.33 u/L
- BLOOD UREA NITROGEN [1]: 14.67 mg/dL
- CARBON DIOXIDE [1]: 26.67 mmol/L
- CHLORIDE [1]: 103.67 MEQ/L
- CHOLESTEROL [1]: 67.33 mg/dL
- CREATINE PHOSPHOKINASE [1]: 179.33 u/L
- CREATININE [1]: 0.2 mg/dL
- GLUCOSE [1]: 149.33 mg/dL
- LACTATE DEHYDROGENASE [1]: 119.67 u/L
- LIPASE [1]: 10 u/L
- PHOSPHORUS [1]: 11.83 mg/dL
- POTASSIUM [1]: 6.23 MEQ/L
- SODIUM [1]: 148.07 MEQ/L
- TOTAL BILIRUBIN [1]: 0.2 mg/dL
- TOTAL PROTEIN [1]: 6.5 G/DL
- URIC ACID [1]: 1.37 mg/dL
- ABSOLUTE BASOPHIL [2]: 0 CELLS/uL
- ABSOLUTE EOSINOPHIL [2]: 0 CELLS/uL
- ABSOLUTE LYMPHOCYTE [2]: 11798 CELLS/uL
- ABSOLUTE MONOCYTE [2]: 169.33 CELLS/uL
- ABSOLUTE SEGMENTED NEUTROPHIL [2]: 799.33 CELLS/uL
- BASOPHIL [2]: 0%
- EOSINOPHIL [2]: 0%
- ERYTHROCYTE COUNT [2]: 5.52 x10E6/uL
- HEMATOCRIT [2]: 36.3%
- HEMOGLOBIN [2]: 14.03 G/DL
- LEUKOCYTE COUNT [2]: 12.77 x10E3/uL
- LYMPHOCYTE [2]: 92.67%
- MEAN CORPUSCULAR HEMOGLOBIN [2]: 25.5 pg
- MEAN CORPUSCULAR HEMOGLOBIN CONCENTRATION [2]: 38.63 G/DL
- MEAN CORPUSCULAR VOLUME [2]: 65.97 fL
- MONOCYTE [2]: 1.33%
- NEUTROPHIL [2]: 6%
- NUCLEATED RED BLOOD CELLS [2]: 0 /100WBC
- PLATELET COUNT [2]: 1068 x10E3/uL
- ALANINE AMINOTRANSFERASE [2]: 48.67 u/L
- ALBUMIN [2]: 4.33 G/DL
- ALKALINE PHOSPHATASE [2]: 367.67 u/L
- ASPARTATE AMINOTRANSFERASE [2]: 67 u/L
- BLOOD UREA NITROGEN [2]: 16.67 mg/dL
- CARBON DIOXIDE [2]: 23 mmol/L
- CHLORIDE [2]: 102 MEQ/L
- CHOLESTEROL [2]: 87.33 mg/dL
- CREATINE PHOSPHOKINASE [2]: 182.33 u/L
- CREATININE [2]: 0.19 mg/dL
- GLUCOSE [2]: 155.33 mg/dL
- LACTATE DEHYDROGENASE [2]: 84.67 u/L
- LIPASE [2]: 11 u/L
- PHOSPHORUS [2]: 11.8 mg/dL
- POTASSIUM [2]: 7.17 MEQ/L
- SODIUM [2]: 143.37 MEQ/L
- TOTAL BILIRUBIN [2]: 0.2 mg/dL
- TOTAL PROTEIN [2]: 6.23 G/DL
- URIC ACID [2]: 1.57 mg/dL
- ABSOLUTE BASOPHIL [3]: 0 CELLS/uL
- ABSOLUTE EOSINOPHIL [3]: 139 CELLS/uL
- ABSOLUTE LYMPHOCYTE [3]: 14390.33 CELLS/uL
- ABSOLUTE MONOCYTE [3]: 36 CELLS/uL
- ABSOLUTE SEGMENTED NEUTROPHIL [3]: 934.67 CELLS/uL
- BASOPHIL [3]: 0%
- EOSINOPHIL [3]: 1%
- ERYTHROCYTE COUNT [3]: 5.54 x10E6/uL
- HEMATOCRIT [3]: 34.93%
- HEMOGLOBIN [3]: 13.77 G/DL
- LEUKOCYTE COUNT [3]: 15.5 x10E3/uL
- LYMPHOCYTE [3]: 92.67%
- MEAN CORPUSCULAR HEMOGLOBIN [3]: 24.87 pg
- MEAN CORPUSCULAR HEMOGLOBIN CONCENTRATION [3]: 39.4 G/DL
- MEAN CORPUSCULAR VOLUME [3]: 63.03 fL
- MONOCYTE [3]: 0.33%
- NEUTROPHIL [3]: 6%
- NUCLEATED RED BLOOD CELLS [3]: 0.33 /100WBC
- PLATELET COUNT [3]: 1189.67 x10E3/uL
- ALANINE AMINOTRANSFERASE [3]: 51.33 u/L
- ALBUMIN [3]: 4.37 G/DL
- ALKALINE PHOSPHATASE [3]: 367.67 u/L
- ASPARTATE AMINOTRANSFERASE [3]: 74.33 u/L
- BLOOD UREA NITROGEN [3]: 16.67 mg/dL
- CARBON DIOXIDE [3]: 27.33 mmol/L
- CHLORIDE [3]: 102 MEQ/L
- CHOLESTEROL [3]: 87.67 mg/dL
- CREATINE PHOSPHOKINASE [3]: 121.67 u/L
- CREATININE [3]: 0.22 mg/dL
- GLUCOSE [3]: 150.33 mg/dL
- LACTATE DEHYDROGENASE [3]: 70.67 u/L
- LIPASE [3]: 10 u/L
- PHOSPHORUS [3]: 12.73 mg/dL
- POTASSIUM [3]: 6.81 MEQ/L
- SODIUM [3]: 146.27 MEQ/L
- TOTAL BILIRUBIN [3]: 0.2 mg/dL
- TOTAL PROTEIN [3]: 6.3 G/DL
- URIC ACID [3]: 1.8 mg/dL
